From PMC7394005, “Assessing the Selectivity of FXR, LXRs, CAR, and RORγ Pharmaceutical Ligands With Reporter Cell Lines” (Frontiers in Pharmacology, 2020) come the findings set out here.

Like-named read-outs stand apart in the source and are kept apart here. Where only a bound is given, the exact number is not on record here.

Common to all, as to type: cell-based
One test has as its target T1, human CAR (+ APYLT) (Homo sapiens, UniProt Q14994, INS270APYLT).
T1 construct: CAR (M76-S348); expressed in transfected cells; host or cells: HG5LN (HeLa cells carrying the (GAL4RE)5-βGlob-Luc-SVNeo reporter)
T1 sequence (Q14994 47-324 isoform Q14994-6): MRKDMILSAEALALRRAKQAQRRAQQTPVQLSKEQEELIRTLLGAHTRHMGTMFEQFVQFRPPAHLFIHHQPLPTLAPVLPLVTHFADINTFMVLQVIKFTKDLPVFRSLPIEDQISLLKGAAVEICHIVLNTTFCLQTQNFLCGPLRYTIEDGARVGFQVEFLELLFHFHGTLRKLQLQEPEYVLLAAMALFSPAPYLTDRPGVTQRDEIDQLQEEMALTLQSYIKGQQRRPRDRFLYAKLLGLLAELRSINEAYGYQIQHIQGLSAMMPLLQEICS
As to the kind of experiment: HG5LN GAL4-CAR (+APYLT) reporter cell line, agonist mode. Conditions: for EC50: HG5LN CAR + APYLT cells, tested alone, NE = No effect. The text has this: (§1) To construct GAL4-NR chimeras, individual LBDs of human FXR (R193-Q486), LXRα (A187-E447), LXRβ (G199-E461), CAR (M76-S348), and RORγ (S97-K518) were amplified by PCR with primers containing XhoI and SacI restriction sites (FXR), XhoI and BamHI (LXRs, CAR, RORγ) and inserted in pSG5-GAL4(DBD)-puromycin plasmid. To construct GAL4-CAR (+ APYLT) (M76-S353), the five amino acids APYLT were inserted by overlap extension PCR between amino acids P270 and D271 of CAR.
(§2) To characterize the specificity of chemicals for human FXR, LXRα, LXRβ, CAR and RORγ, we established in a similar manner HG5LN FXR, LXRα, LXRβ, CAR WT, CAR (APYLT) and RORγ reporter cell lines. […] These cells were stably transfected by pSG5-GAL4 (DBD)-NRs (LBD)-puromycin plasmid and selected in presence of 0.5 µg/ml puromycin. […] From each HG5LN NR cells, 5 to 10 clones were chosen for their ligand inducibility of luciferase expression. […] The most inducible clones were expanded and rechecked for inducibility and aliquots were frozen at different passages. One clone per receptor was maintained in culture and used for ligand screening. HG5LN cells were cultured in Dulbecco’s modified Eagle’s medium (DMEM): Nutrient Mixture F-12 (DMEM/F-12) containing phenol red and 1 g/l glucose and supplemented with 5% fetal bovine serum, 100 units/ml of penicillin, 100 µg/ml of streptomycin and 1 mg/ml geneticin, in 5% CO2 humidified atmosphere at 37°C. Stably transfected cell lines derived from HG5LN cells were cultured in the same culture medium supplemented with 0.5 µg/ml puromycin.
(§3) Individual reporter cell lines were seeded at a density of 40,000 cells per well in 96-well white opaque tissue culture plates (Greiner CellStar) in Dulbecco’s Modified Eagle Medium: Nutrient Mixture F-12 (DMEM/F-12) without phenol red and 1 g/l glucose and supplemented with 5% stripped fetal bovine serum, 100 units/ml of penicillin, 100 µg/ml of streptomycin (test medium). Chemicals to be tested were added 24h later, and cells were incubated at 37°C for 16h. Experiments were performed in quadruplicates. At the end of the incubation period, culture medium was replaced with test medium containing 0.3 mM luciferin solution. Luciferase activity was measured for 2s in intact living cells after 10 min stabilization using a Micro Beta Wallac luminometer (PerkinElmer). EC50 values were calculated using GraphPad Prism (GraphPad Software Inc).
(§4) Chemicals tested for agonism on FXR, LXRs, CAR (+ APYLT), PXR, and antagonism on CAR and RORγ were tested alone, without addition of any other ligand.
(§5) In the transactivation assay, each compound was tested at various concentrations in three independent experiments at least. For each experiment, tests were performed in quadruplicates for each concentration, and data are expressed by means values with standard deviations. Individual agonist dose–response curves, in the absence and presence of antagonist, were fitted using the sigmoid dose-response function of a graphics and statistics software program (GraphPad Prism, version 5.0). EC50 (effective concentration for half-maximal luciferase activity) and IC50 (half-maximal inhibitory concentration) values were calculated from equations used to fit the data in this graphic software. Transactivation data are presented as EC50 and IC50 values for each compound tested. To analyze significances, we compared individual compound treatments with controls using one-way analysis of variance (ANOVA) with the help of GraphPad Prism software.

The target in the next test is T2, human LXRα (Homo sapiens, UniProt Q13133).
T2 construct: LXRα (A187-E447); expressed in transfected cells; host or cells: HG5LN (HeLa cells carrying the (GAL4RE)5-βGlob-Luc-SVNeo reporter)
T2 sequence (Q13133 187-447): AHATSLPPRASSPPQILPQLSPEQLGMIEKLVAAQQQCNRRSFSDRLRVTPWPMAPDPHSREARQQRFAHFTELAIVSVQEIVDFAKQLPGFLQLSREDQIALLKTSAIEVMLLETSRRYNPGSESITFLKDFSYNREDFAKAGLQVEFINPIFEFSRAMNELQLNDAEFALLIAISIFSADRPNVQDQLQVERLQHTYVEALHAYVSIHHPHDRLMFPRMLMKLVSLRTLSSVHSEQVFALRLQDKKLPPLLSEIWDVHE
As to the kind of experiment: HG5LN GAL4-LXRα reporter cell line, agonist mode. Conditions: for LXRα % max act: maximal luciferase activity at 10^-5 M (10^-6 M for * and 3 10^-6 M for ** compounds), 100% = 1 µM T0901317, DMSO 8 ± 1.
Text: as §1, §2, §3, §4, §5

The next test addresses T3, human RORγ (Homo sapiens, UniProt P51449).
T3 construct: RORγ (S97-K518); expressed in transfected cells; host or cells: HG5LN (HeLa cells carrying the (GAL4RE)5-βGlob-Luc-SVNeo reporter)
T3 sequence (P51449 97-518): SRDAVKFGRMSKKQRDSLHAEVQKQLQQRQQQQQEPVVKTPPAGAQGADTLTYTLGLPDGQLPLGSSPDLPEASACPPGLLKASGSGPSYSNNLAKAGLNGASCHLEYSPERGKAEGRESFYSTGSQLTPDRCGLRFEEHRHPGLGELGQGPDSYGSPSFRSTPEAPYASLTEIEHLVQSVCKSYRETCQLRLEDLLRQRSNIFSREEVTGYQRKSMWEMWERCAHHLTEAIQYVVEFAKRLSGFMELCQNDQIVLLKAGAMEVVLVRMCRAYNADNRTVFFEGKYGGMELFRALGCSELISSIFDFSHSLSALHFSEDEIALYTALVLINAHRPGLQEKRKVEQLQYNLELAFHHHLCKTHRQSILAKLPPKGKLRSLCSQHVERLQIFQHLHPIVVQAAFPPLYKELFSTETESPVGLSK
As to the kind of experiment: HG5LN GAL4-RORγ reporter cell line, agonist mode in presence of SR2211. Conditions: in presence of SR2211 1 mM, NE = No effect; for EC50: read-out: RORγ (SR2211 1 mM) EC50.
Text: as §1, §2, §3, §4, §5

Setting [1] is: HG5LN GAL4-LXRα cells, tested alone, NE = No effect, read-out: LXRα EC50.

What is called EC50 is the concentration at which the effect is half-maximal. For `CCOC(=O)Nc1ccc2c(c1)N(C(=O)CN(CC)CC)c1ccccc1CC2` [CINPA1], the 50% effective concentration (EC50) at human CAR (+ APYLT), at human LXRα (setting [1]) and on human RORγ was above 10 µM in each case.
On to `Clc1ccc(-c2nc3sccn3c2/C=N/OCc2ccc(Cl)c(Cl)c2)cc1` [CITCO], for which the concentration giving a half-maximal response (EC50) at human LXRα (setting [1]) and at human RORγ was above 10 µM throughout.
In the case of `Clc1ccccc1C(c1ccccc1)(c1ccccc1)n1ccnc1` [Clotrimazole, clotrimazole], the Emax at 10 µM on human CAR (+ APYLT) (HG5LN, read-out: CAR (APYLT) % max act) was 23%. In addition, the EC50 at human LXRα (setting [1]) and on human RORγ was above 10 µM each time.
`COc1cccc(Cn2cc(C(=O)Nc3ccc(C)c(S(=O)(=O)N4CCOCC4)c3)c(-c3ccc(C)cc3)n2)c1` [DY268]: the EC50 on human CAR (+ APYLT), on human LXRα (setting [1]) and at human RORγ was above 10 µM each time.
As for `CC(C)(C)c1nc(-c2cccc(NS(=O)(=O)c3c(F)cccc3F)c2F)c(-c2ccnc(N)n2)s1` [Dabrafenib], the half-maximal effective concentration (EC50) at human CAR (+ APYLT), at human LXRα (setting [1]) and on human RORγ was above 10 µM each time.
With `COC(=O)/C=C/c1cccc(N(Cc2ccc(-c3ccc(N(C)C)cc3)cc2)C(=O)C2CCCCC2)c1` [Feraxamine], the concentration for a half-maximal effect (EC50) on human CAR (+ APYLT), on human LXRα (setting [1]) and on human RORγ was above 10 µM throughout.
On to `Cc1cc(C)c(S(=O)(=O)N(Cc2ccc(-c3cccc(S(C)(=O)=O)c3)cc2)Cc2ccc(C(F)(F)F)o2)c(C)c1` [GSK2033], for which the 50% effective concentration (EC50) at human CAR (+ APYLT) and on human RORγ was above 10 µM each time.
As for `O=C(O)Cc1cccc(OCCCN(Cc2cccc(C(F)(F)F)c2Cl)CC(c2ccccc2)c2ccccc2)c1` [GW3965], the values for the EC50 on human CAR (+ APYLT), on human LXRα (setting [1]) and at human RORγ were above 10 µM, 0.176 ± 0.048 µM and above 10 µM, respectively. Further, the “LXRα % max act” value on human LXRα (NE = No effect) is recorded as 98%.
Take `CC(C)c1onc(-c2c(Cl)cccc2Cl)c1COc1ccc(/C=C/c2cccc(C(=O)O)c2)c(Cl)c1` [GW4064]: the EC50 at human CAR (+ APYLT), at human LXRα (setting [1]) and on human RORγ was above 10 µM each time.
For `Cc1oc2ccccc2c1CNC(=O)NCc1cccs1` [S07662], the EC50 at human CAR (+ APYLT), at human LXRα (setting [1]) and at human RORγ was above 10 µM throughout.
Take `O=C(Nc1ccc(C(O)(C(F)(F)F)C(F)(F)F)cc1)c1ccccc1Cl` [SR0987]: the concentration for a half-maximal effect (EC50) on human CAR (+ APYLT) and on human LXRα (setting [1]) was above 10 µM in each case.
For the compound `CC(=O)Nc1nc(C)c(S(=O)(=O)Nc2ccc(C(O)(C(F)(F)F)C(F)(F)F)cc2)s1` [SR1001], the concentration for a half-maximal effect (EC50) at human CAR (+ APYLT) and on human LXRα (setting [1]) was above 10 µM in each case.
As to `O=C(Nc1ccc(C(O)(C(F)(F)F)C(F)(F)F)cc1)c1ccc(C(F)(F)F)cc1` [SR1078], the figures for the 50% effective concentration (EC50) at human CAR (+ APYLT), at human LXRα (setting [1]) and on human RORγ were above 10 µM, above 10 µM and 2.09 ± 0.131 µM, respectively. The “RORγ (SR2211 1 mM) % max act” value at human RORγ (100% = constitutive activity, DMSO 56 ± 5, at 10^-5 M (10^-6 M *, 3 10^-6 M **)) worked out at 75%.
Turning to `CCOC(=O)c1ccc(CN(Cc2ccc(-c3cccc(S(C)(=O)=O)c3)cc2)S(=O)(=O)c2c(C)cc(C)cc2C)o1` [SR9238], the EC50 on human CAR (+ APYLT) and on human RORγ was above 10 µM in each case.
For the compound `Cc1cc(C)c(S(=O)(=O)N(CCc2cccc(Br)c2)Cc2ccc(-c3cccc(S(C)(=O)=O)c3)cc2)c(C)c1` [SR9243], the half-maximal effective concentration (EC50) on human CAR (+ APYLT) and on human RORγ was above 10 µM in each case.
With `CCOP(=O)(OCC)C(=Cc1cc(C(C)(C)C)c(O)c(C(C)(C)C)c1)P(=O)(OCC)OCC` [SR12813], the concentration giving a half-maximal response (EC50) on human CAR (+ APYLT), at human LXRα (setting [1]) and on human RORγ was above 10 µM each time.
As to `Fc1ccc(-c2c3cccc(C(F)(F)F)c3nn2Cc2ccc(F)cc2Cl)cc1` [WAY252623], the 50% effective concentration (EC50) is above 10 µM at human CAR (+ APYLT), 0.595 ± 0.068 µM on human LXRα and above 10 µM on human RORγ. The “LXRα % max act” value at human LXRα (NE = No effect) is on record as 67%.
In the case of SPA70, the EC50 on human CAR (+ APYLT), on human LXRα (setting [1]) and on human RORγ was above 10 µM throughout.
